Where two headings read alike, the source gives them in different places.
What was measured:
[1] = test system: clinical isolates of bacterial strains of A. baumannii; test: MIC by CLSI microdilution in CAMHB media; assay type: cell-based; conditions: Acinetobacter baumannii, 24 h
Protocol: (§1) The minimal inhibitory concentration (MIC) of compound 4 was determined against standard strains of MDR bacteria and clinical isolates according to the guidelines of the Clinical and Laboratory Standards Institute (CLSI).
Individual MICs were determined following the microdilution method recommended by CLSI in cationic-adjusted Mueller-Hinton Broth (CAMHB), or M9 media. The MIC was defined as the lowest drug concentration that caused 100% inhibition of visible bacterial growth after 24 hours incubation. Tests were performed in triplicate. MIC of Compound 4 were determined for nosocomial ESKAPE pathogens (Enterococcus faecium, Staphylococcus aureus, Klebsiella pneumoniae, Acinetobacter baumannii, Pseudomonas aeruginosa, and Enterobacter species).
(§2) Tables l and 2 show the MIC of compound 4 determined in two different media for clinical isolates of bacterial strains of A. baumannii (AB) obtained from the Multidrug-resistant Organism Repository & Surveillance Network, USA.

[2] = Stability in aqueous solution; assay type: physicochemical
Source text: (§3) It should be noted that the inhibition occurred in a dose-responsive manner.

[3] = test system: clinical isolates of bacterial strains of A. baumannii; test: MIC by CLSI microdilution in RPMI 1640 (low iron) media; assay type: cell-based, Acinetobacter baumannii; design: key to MIC of compound 4: NG = no growth; conditions: for MIC: Acinetobacter baumannii
Protocol: as §1
[…] The MIC was defined as the lowest drug concentration that caused 100% inhibition of visible bacterial growth after 24 hours incubation. Tests were performed in triplicate. MIC of Compound 4 were determined for nosocomial ESKAPE pathogens (Enterococcus faecium, Staphylococcus aureus, Klebsiella pneumoniae, Acinetobacter baumannii, Pseudomonas aeruginosa, and Enterobacter species).
as §2

A. baumannii strain 5711 = test: Growth curves (OD600) in CAMHB medium; assay type: cell-based, Acinetobacter baumannii; conditions: various concentrations, dose-responsive
Source text: as §3

bacterial infections = conditions: described in PCT/US2012/023377 (WO 2012/106364); cited from earlier work
6-OHDA lesioned rats = conditions: cited from earlier work; for activity (neuroprotection) against 6-OHDA in an animal model of Parkinson's disease: prior publications, Ben Shachar et al. 2004
[4] = test system: lactacystin-lesioned mice; conditions: 5 mg/kg once a day i.p., 7 days before or after lactacystin microinjection; Zhu et al. 2007; cited from earlier work
[5] = prior publications (WO 00/74664; WO 2004/041151); cited from earlier work
[6] = strain AB3638, read-out: MIC of compound 4
[7] = strain AB3785, read-out: MIC of compound 4
[8] = strain AB3806, read-out: MIC of compound 4
[9] = strain AB3917, read-out: MIC of compound 4
[10] = strain AB4025, read-out: MIC of compound 4
[11] = strain AB4026, read-out: MIC of compound 4
[12] = strain AB4027, read-out: MIC of compound 4
[13] = strain AB4052, read-out: MIC of compound 4
[14] = strain AB4269, read-out: MIC of compound 4
[15] = strain AB4448, read-out: MIC of compound 4
[16] = strain AB4456, read-out: MIC of compound 4
[17] = strain AB4490, read-out: MIC of compound 4
[18] = strain AB4498, read-out: MIC of compound 4
[19] = strain AB4795, read-out: MIC of compound 4
[20] = strain AB4857, read-out: MIC of compound 4
[21] = strain AB4878, read-out: MIC of compound 4
[22] = strain AB4932, read-out: MIC of compound 4
[23] = strain AB4957, read-out: MIC of compound 4
[24] = strain AB4991, read-out: MIC of compound 4
[25] = strain AB5001, read-out: MIC of compound 4
[26] = strain AB5075, read-out: MIC of compound 4
[27] = strain AB5197, read-out: MIC of compound 4
[28] = strain AB5256, read-out: MIC of compound 4
[29] = strain AB5674, read-out: MIC of compound 4
[30] = strain AB5711, read-out: MIC of compound 4
[31] = rats, Ben Shachar et al., Neuropharmacology 46 (2004) 254-263

In the case of OCCN1CCN(CCc2ccc(O)c3ncccc23)CC1 [Compound 4, 5-(2-(4-(2-hydroxyethyl)piperazin-1-yl)ethyl)-8-quinolinol], the MIC ([1]; strain AB967, read-out: MIC of compound 4) is reported as 500 µg/mL, the MIC ([1]; strain AB2828, read-out: MIC of compound 4) is reported as 500 µg/mL and the MIC ([1]; strain AB3340, read-out: MIC of compound 4) is reported as 500 µg/mL. It also gave an MIC ([1]; strain AB3560, read-out: MIC of compound 4) of 500 µg/mL, an MIC [1, 6] of 500 µg/mL and an MIC [1, 7] of 500 µg/mL. For the same molecule, the MIC [1, 8] was 1000 µg/mL, the MIC [1, 9] was 500 µg/mL and the MIC ([1]; strain AB3927, read-out: MIC of compound 4) was 500 µg/mL. The MIC [1, 10] was 500 µg/mL, the MIC [1, 11] was 500 µg/mL and the MIC [1, 12] was 500 µg/mL. The MIC [1, 13] was 1000 µg/mL, the MIC [1, 14] was 500 µg/mL and the MIC [1, 15] was 500 µg/mL. The MIC [1, 16] was 500 µg/mL, the MIC [1, 17] was 500 µg/mL and the MIC [1, 18] was 500 µg/mL. The MIC [1, 19] was 500 µg/mL, the MIC [1, 20] was 500 µg/mL and the MIC [1, 21] was 500 µg/mL. It also gave an MIC [1, 22] of 500 µg/mL, an MIC [1, 23] of 500 µg/mL and an MIC [1, 24] of 500 µg/mL. For the same molecule, the MIC [1, 25] was 500 µg/mL, the MIC [1, 26] was 500 µg/mL and the MIC [1, 27] was 500 µg/mL. The MIC [1, 28] was 500 µg/mL, the MIC [1, 29] was 500 µg/mL and the MIC [1, 30] was 500 µg/mL. For the same molecule, the “stability in aqueous solution” value [2] was “highly stable”, the MIC [3, 6] was 64 µg/mL and the MIC [3, 7] was 32 µg/mL. It also gave an MIC [3, 8] of 32 µg/mL, an MIC [3, 9] of 32 µg/mL and an MIC [3, 10] of 32 µg/mL. For the same molecule, the MIC [3, 11] was 32 µg/mL, the MIC [3, 12] was 32 µg/mL and the MIC [3, 13] was 64 µg/mL. It also gave an MIC [3, 14] of 32 µg/mL, an MIC [3, 15] of 64 µg/mL and an MIC [3, 16] of 32 µg/mL. The MIC [3, 17] was 32 µg/mL, the MIC [3, 18] was 64 µg/mL and the MIC [3, 19] was 32 µg/mL. For the same molecule, the MIC [3, 20] was 64 µg/mL, the MIC [3, 21] was 64 µg/mL and the MIC [3, 22] was 125 µg/mL. For the same molecule, the MIC [3, 23] was 125 µg/mL, the MIC [3, 24] was 8 µg/mL and the MIC [3, 25] was 32 µg/mL. It also gave an MIC [3, 26] of 64 µg/mL, an MIC [3, 27] of 32 µg/mL and an MIC [3, 28] of 125 µg/mL. The MIC [3, 29] was 32 µg/mL, the MIC [3, 30] was 64 µg/mL and the “MIC of compound 4” value ([3]; strain AB967) was “NG”. The “MIC of compound 4” value ([3]; strain AB2828) was “NG”, the “MIC of compound 4” value ([3]; strain AB3340) was “NG” and the “MIC of compound 4” value ([3]; strain AB3560) was “NG”. For the same molecule, the “MIC of compound 4” value ([3]; strain AB3927) was “NG”, the “OD600 in growth curves (inhibition of growth)” value (A. baumannii strain 5711) was “dramatically reduced” and the antibacterial activity (bacterial infections) was “antibacterial activity”.

In the case of OCCN1CCN(Cc2ccc(O)c3ncccc23)CC1 [VK28, 5-[4-(2-hydroxyethyl)piperazin-1-ylmethyl]-8-hydroxyquinoline], the “activity (neuroprotection) against 6-OHDA in an animal model of Parkinson's disease” value (from here on “activity (neuroprotection)”) (6-OHDA lesioned rats) is listed as “active”, the “activity (neuroprotection)” value (6-OHDA lesioned rats; listed as Vk-28) is listed as “neuroprotection” and the “basal striatal tissue monoamine concentrations” value (6-OHDA lesioned rats; [31]) is listed as “no effect”. The “striatal 5-HT, 5-HIAA and NE concentrations” value (6-OHDA lesioned rats; [31]) was “not be affected”, the behavioral performances [4] was “significantly improved” and the “lactacystin-induced DA neuron loss in SN” value [4] was “attenuated”. For the same molecule, the “lactacystin-induced iron accumulation in SN” value [4] was “attenuated”, the “lactacystin-induced microglial activation in SN” value [4] was “attenuated” and the “lactacystin-induced proteasomal inhibition in SN” value [4] was “attenuated”. The “ability to cross the BBB” value [5] was “able to cross the BBB” and the antibacterial activity (bacterial infections) was “antibacterial activity”.

In the case of C#CCN(C)Cc1ccc(O)c2ncccc12 [M30], the “activity (neuroprotection)” value (6-OHDA lesioned rats) is given as “active” and the “ability to cross the BBB” value [5] is given as “able to cross the BBB”.

Source: patent US20150025085A1, “Iron Chelators And Uses Thereof” (Varinel Inc., priority 2012, published 2015)
